What was measured:
[1] = biological target: Muscarinic acetylcholine receptor M3 (Cavia porcellus) (UniProt Q8VH26); experiment: Affinity for Muscarinic acetylcholine receptor M3 of guinea pig ileum.; type: tissue-based
[2] = biological target: T1, Muscarinic acetylcholine receptor M2 (Homo sapiens) (UniProt P08172); experiment: Affinity for Muscarinic acetylcholine receptor M2 of guinea pig heart.; settings: Cavia porcellus; target entry is the homologue from another species
T1 sequence (whole entry): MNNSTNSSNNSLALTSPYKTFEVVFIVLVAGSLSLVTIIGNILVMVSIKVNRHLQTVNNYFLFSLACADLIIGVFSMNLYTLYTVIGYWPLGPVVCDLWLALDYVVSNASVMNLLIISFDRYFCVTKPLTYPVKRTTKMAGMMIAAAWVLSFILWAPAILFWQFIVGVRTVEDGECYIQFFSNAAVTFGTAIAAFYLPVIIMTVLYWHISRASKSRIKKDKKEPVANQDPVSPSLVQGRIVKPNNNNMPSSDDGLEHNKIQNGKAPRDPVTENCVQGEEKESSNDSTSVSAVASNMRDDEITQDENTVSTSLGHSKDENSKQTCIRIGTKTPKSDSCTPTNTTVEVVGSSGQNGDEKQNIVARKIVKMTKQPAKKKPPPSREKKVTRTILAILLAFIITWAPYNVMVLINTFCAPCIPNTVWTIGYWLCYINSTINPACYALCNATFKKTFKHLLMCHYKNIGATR

[3] = biological target: T2, Muscarinic acetylcholine receptor M1 (Homo sapiens) (UniProt P11229); experiment: Affinity for Muscarinic acetylcholine receptor M1 of rabbit vas deferens.; settings: Oryctolagus cuniculus; target entry is the homologue from another species
T2 sequence (whole entry): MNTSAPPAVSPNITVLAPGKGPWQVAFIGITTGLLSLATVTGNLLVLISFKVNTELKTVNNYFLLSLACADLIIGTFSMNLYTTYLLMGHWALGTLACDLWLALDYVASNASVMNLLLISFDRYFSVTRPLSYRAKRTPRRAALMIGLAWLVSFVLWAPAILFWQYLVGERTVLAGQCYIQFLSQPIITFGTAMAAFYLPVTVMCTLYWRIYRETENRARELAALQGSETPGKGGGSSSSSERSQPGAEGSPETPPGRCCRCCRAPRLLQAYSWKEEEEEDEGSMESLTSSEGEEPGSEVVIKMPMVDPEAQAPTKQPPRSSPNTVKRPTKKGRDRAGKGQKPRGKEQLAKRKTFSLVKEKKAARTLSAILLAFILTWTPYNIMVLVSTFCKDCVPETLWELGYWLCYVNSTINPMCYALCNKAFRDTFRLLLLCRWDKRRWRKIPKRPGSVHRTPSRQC

Chain of Muscarinic acetylcholine receptor M3 (Cavia porcellus) (Q8VH26 1-587): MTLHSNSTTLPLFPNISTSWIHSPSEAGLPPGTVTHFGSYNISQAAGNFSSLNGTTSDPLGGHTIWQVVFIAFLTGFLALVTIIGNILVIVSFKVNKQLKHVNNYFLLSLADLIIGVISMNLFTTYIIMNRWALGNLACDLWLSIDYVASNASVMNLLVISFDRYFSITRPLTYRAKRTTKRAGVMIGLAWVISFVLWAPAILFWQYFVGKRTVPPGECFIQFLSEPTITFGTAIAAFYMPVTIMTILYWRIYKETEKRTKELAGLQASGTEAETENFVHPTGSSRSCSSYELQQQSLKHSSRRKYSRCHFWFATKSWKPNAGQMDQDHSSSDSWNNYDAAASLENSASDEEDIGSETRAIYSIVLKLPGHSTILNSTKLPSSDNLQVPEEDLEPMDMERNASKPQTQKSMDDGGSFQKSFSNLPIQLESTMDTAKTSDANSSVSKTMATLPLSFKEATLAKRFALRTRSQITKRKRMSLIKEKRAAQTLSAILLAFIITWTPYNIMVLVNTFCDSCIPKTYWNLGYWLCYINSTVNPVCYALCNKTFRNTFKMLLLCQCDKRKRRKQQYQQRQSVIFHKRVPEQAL

Row | Compound | pKb [1] | pKb [2] | pKb [3]
1 | C[C@H]([C@@H]1COC(c2ccccc2)(c2ccccc2)O1)[N+](C)(C)C | 8.4 | 8.38 | 8.23
2 | C[C@H](C1COC(c2ccccc2)(c2ccccc2)O1)[N+](C)(C)C (some centres undefined) | 7.51 | 7.53 | 8.24
3 | C[C@@H](C1COC(c2ccccc2)(c2ccccc2)O1)[N+](C)(C)C (some centres undefined) | 8 | 8.21 | 7.12
4 | CC(C1COC(c2ccccc2)(c2ccccc2)O1)[N+](C)(C)C (racemic; form 1) | 8.3 | 8.22 | 8.01
5 | CN(C)CC1COC(c2ccccc2)(c2ccccc2)O1 (centres undefined) | 6.72 | 7.11 | 7.15
6 | CC(C1COC(c2ccccc2)(c2ccccc2)O1)N(C)C (racemic; form 2) | 7.94 | 8.03 | 8.11
7 | CC(C1COC(c2ccccc2)(c2ccccc2)O1)N(C)C (racemic; form 1) | 6.96 | 7.2 | 6.95
8 | C[C@H]([C@@H]1COC(c2ccccc2)(c2ccccc2)O1)N(C)C | 7.45 | 7.47 | 6.83
9 | CC(C1COC(c2ccccc2)(c2ccccc2)O1)[N+](C)(C)C (racemic; form 2) | 7.92 | 8.07 | 7.82
10 | C[C@@H]([C@H]1COC(c2ccccc2)(c2ccccc2)O1)[N+](C)(C)C | 7.85 | 7.82 | 7.47
11 | C[C@@H]([C@H]1COC(c2ccccc2)(c2ccccc2)O1)N(C)C | 8.92 | 8.39 | 8.46
12 | C[C@H](C1COC(c2ccccc2)(c2ccccc2)O1)N(C)C (some centres undefined) | 6.41 | 6.41 | 6.52
13 | C[C@@H](C1COC(c2ccccc2)(c2ccccc2)O1)N(C)C (some centres undefined) | 7.19 | 7.35 | 6.94

Reference: ChEMBL document CHEMBL1133792, “Synthesis, absolute configuration and antimuscarinic activity of the enantiomers of [1-(2,2-diphenyl-[1,3]dioxolan-4-yl)-ethyl]-dimethyl-amine” (Bioorg Med Chem Lett, 2001)
